Consider six compounds from publication PMC4399389, “Identification of a laccase Glac15 from Ganoderma lucidum 77002 and its application in bioethanol production” (Biotechnology for Biofuels, 2015).

The structures appear in SMILES notation.

The term Km denotes the substrate concentration at which the rate is half of its maximum.

What all share (test): oxidation, absorbance at […] nm
What all share (type): biochemical, Ganoderma lucidum

The test system of test [1] is T1, Glac15 (laccase, isoenzyme from G. lucidum 77002).
T1 construct: native secreted enzyme purified from culture filtrate (ultrafiltration, DEAE-Sepharose FF); signal peptide of 21 residues removed; N-terminus GIGPTTDLTISNADI; tryptic peptides matched Glac6 and Glac15 of strain Xiangnong No.1
The following applies: optimum pH 4.5; 50 mM citrate-phosphate buffer; optimal temperature 45 °C; O2 as co-substrate.

Test [2] has the same test system. The following applies: optimum pH 2.5; 50 mM citrate-phosphate buffer; optimal temperature 50 °C; O2 as co-substrate.
The test system is the same in test [3]. The following applies: optimum pH 5.0; 50 mM citrate-phosphate buffer; optimal temperature 45 °C; O2 as co-substrate.
For test [4] the test system is unchanged. The following applies: optimum pH 5.0; 50 mM citrate-phosphate buffer; optimal temperature 55 °C; O2 as co-substrate.
For test [5] the test system is unchanged. The following applies: optimum pH 4.5; 50 mM citrate-phosphate buffer; optimal temperature 50 °C; O2 as co-substrate.
For test [6] the test system is unchanged. The following applies: optimum pH 4.5; 50 mM citrate-phosphate buffer; optimal temperature 45 °C; O2 as co-substrate. The source holds these as a separate data set.

Regarding `COc1cccc(OC)c1O` [2,6-DMP, 2,6-dimethoxyphenol], the Michaelis-Menten constant (Km) in test [1] was 120 µM.

Consider `CCn1c(=NN=c2sc3cc(S(=O)(=O)O)ccc3n2CC)sc2cc(S(=O)(=O)O)ccc21` [ABTS, 2,2′-azino-bis-(3-ethylbenzothiazoline-6-sulfonic acid)], for which the Km in test [2] came to 19 µM.

On to `Oc1ccccc1O` [Catechol], for which the Michaelis constant (Km) in test [3] was determined as 780 µM.

As for `COc1ccccc1O` [Guaiacol], the Km in test [4] was determined as 790 µM.

In the case of `N[C@@H](Cc1ccc(O)c(O)c1)C(=O)O` [L-dopamine], the Michaelis-Menten constant (Km) in test [5] was 890 µM.

`COc1cc(C=NN=Cc2cc(OC)c(O)c(OC)c2)cc(OC)c1O` [Syringaldazine]: the Km in test [6] is 62 µM.
